Test results from patent US9790233B2, “Compositions and methods of modulating 15-PGDH activity” (CASE WESTERN RESERVE UNIVERSITY, priority 2012, dated 2017).
Where two headings read alike, the source gives them in different places.

How the values were obtained:
Assay type in all cases: cell-based
[1] = tested on: 15-PGDH luciferase fusion construct in LS174T reporter cell line; experiment: 15-PGDH-luciferase fusion gene reporter induction, LS174T cells; conditions: Homo sapiens
[2] = tested on: 15-PGDH luciferase fusion construct in Vaco503 reporter cell line; experiment: 15-PGDH-luciferase fusion gene reporter induction, V503 cells; conditions: read-out: V503-3H9-7 reporter activity, % ([…]), V503 reporter cells, […] compound, % induction of luciferase activity over basal level
[3] = tested on: 15-PGDH luciferase fusion construct in V9m reporter cell line; experiment: 15-PGDH-luciferase fusion gene reporter induction, V9m cells; conditions: % induction of luciferase activity over basal level
[4] = read-out: Ls174T-SC1 reporter activity, % ([…]), LS174T reporter cells, […] compound, % induction of luciferase activity over basal level, read-out: Ls174T-SC1 reporter activity, % (2.5 μM)
[5] = read-out: Ls174T-SC1 reporter activity, % ([…]), LS174T reporter cells, […] compound, % induction of luciferase activity over basal level, read-out: Ls174T-SC1 reporter activity, % (7.5 μM)
[6] = read-out: V503-3H9-7 reporter activity, % (2.5 μM)
[7] = read-out: V503-3H9-7 reporter activity, % (7.5 μM)
[8] = read-out: V9M-SC3 Reporter activity ([…]) (%), V9m reporter cells, […] compound, read-out: V9M-SC3 Reporter activity (2.5 μM) (%)
[9] = read-out: V9M-SC3 Reporter activity ([…]), %, V9m reporter cells, […] compound, read-out: V9M-SC3 Reporter activity (7.5 μM), %

Row | SMILES | activation at […] [1, 4] [%] | activation at […] [1, 5] [%] | activation at […] [2, 6] [%] | activation at […] [2, 7] [%] | activation at […] [3, 8] [%] | activation at […] [3, 9] [%]
1 | COc1ccc(OC)c(N(CC(=O)Nc2cccnc2)S(=O)(=O)c2ccccc2C(F)(F)F)c1 [SW202944] | 32.5 | 15.8 | 131 | 94.6 | -0.95 | -3.73
2 | COc1ccc(OC)c(N(CC(=O)Nc2cccnc2)S(=O)(=O)c2ccccc2C#N)c1 [SW202945] | 45.7 | 135 | 34 | 127 | 28.5 | 90
3 | COc1ccc(OC)c(N(CC(=O)Nc2ccnc(Cl)c2)S(=O)(=O)c2ccccc2)c1 [SW202946] | 105 | -23.6 | 137 | 34.3 | 64.6 | -41.5
4 | COc1ccc(OC)c(N(CC(=O)Nc2cccnc2)S(=O)(=O)c2ccccc2F)c1 [SW202947] | 52 | 21.2 | 143 | 97.8 | 21.9 | 2.57
5 | COc1ccc(OC)c(NCC(=O)Nc2cccnc2)c1 [SW202948] | -6.73 | 8.36 | 16.4 | 7.54 | -22 | -23.1
6 | COc1ccc(OC)c(N(CC(=O)Nc2cccnc2)S(=O)(=O)c2ccccc2Cl)c1 [SW202949] | -1.58 | -5.87 | -12.5 | 5.32 | 5.76 | -5.69
7 | COc1ccc(OC)c(N(CC(=O)Nc2cccnc2)S(=O)(=O)c2ccc(C(C)=O)cc2)c1 [SW202950] | -2.7 | 10.7 | -6.56 | 12.9 | 12.6 | 23.9
8 | COc1ccc(OC)c(N(CC(=O)Nc2cccnc2)C(C)=O)c1 [SW202952] | -10.3 | 10.6 | 26.2 | 7.16 | -20.7 | -19.5
9 | COc1ccc(OC)c(N(CC(=O)Nc2cccnc2)S(=O)(=O)c2c(C)cc(C)cc2C)c1 [SW202953] | 20.7 | 30.7 | 32 | 50.9 | 13 | 34.8
10 | COc1ccc(OC)c(N(CC(=O)Nc2cccnc2)S(=O)(=O)c2ccccc2OC(F)(F)F)c1 [SW202954] | -4.59 | -6.99 | -8.94 | 2.39 | 2.7 | 4.8
11 | COc1ccc(OC)c(N(CC(=O)Nc2ccccc2OC)S(=O)(=O)c2ccccc2)c1 [SW202965] | -23.5 | 3.52 | 23.8 | 98.1 | -30.9 | -25.8
12 | COc1ccc(OC)c(N(CC(=O)Nc2ccnc(C)c2)S(=O)(=O)c2ccccc2)c1 [SW202966] | 1.82 | 78.2 | 115 | 249 | -0.84 | 67.7
13 | COc1ccc(OC)c(N(CC(=O)Nc2cnccc2C)S(=O)(=O)c2ccccc2)c1 [SW202967] | -11.7 | 9.37 | 34 | 69.6 | -16 | 0
14 | COc1ccc(OC)c(N(CC(=O)Nc2cccnc2C)S(=O)(=O)c2ccccc2)c1 [SW202968] | -17.5 | 6.08 | 35.2 | 53.9 | -21.1 | -7.36
15 | COc1ccc(OC)c(N(CC(=O)Nc2cccc(C)c2)S(=O)(=O)c2ccccc2)c1 [SW202969] | -15.9 | 17.9 | 62.4 | 126 | -21 | -14.3
16 | COc1ccc(OC)c(N(CC(=O)Nc2ccc(Cl)nc2)S(=O)(=O)c2ccccc2)c1 [SW202970] | 47.9 | 55.9 | 179 | 122 | 32.7 | 17.8
17 | COc1ccc(OC)c(N(CC(=O)OC(C)C)S(=O)(=O)c2ccccc2)c1 [SW202971] | -7.91 | 34.5 | 85.5 | 169 | -14.5 | 9.67
18 | COc1ccc(OC)c(N(CC(=O)Nc2cc(C)cnc2Cl)S(=O)(=O)c2ccccc2)c1 [SW202972] | -17.4 | 16.6 | 39.4 | 100 | -15.4 | 0.14
19 | COc1ccc(OC)c(N(CC(=O)Nc2cccnc2Cl)S(=O)(=O)c2ccccc2)c1 [SW202973] | -16.4 | 19.3 | 41.5 | 107 | -15.6 | 5.61
20 | COc1ccc(OC)c(N(CC(=O)Nc2cncc(C)c2)S(=O)(=O)c2ccccc2)c1 [SW202974] | -8.77 | 34.8 | 59.9 | 179 | -9.04 | 35.9
21 | COc1ccc(OC)c(N(CC(=O)Nc2ccccc2C)S(=O)(=O)c2ccccc2)c1 [SW202975] | -7.32 | 17.2 | 47.4 | 116 | -26.6 | -8.97
22 | COc1cccc(NC(=O)CN(c2cc(OC)ccc2OC)S(=O)(=O)c2ccccc2)c1 [SW202976] | -9.97 | 30.1 | 36.8 | 138 | -18.5 | 9.6
23 | COc1ccc(OC)c(N(CC(=O)OC2CCCCC2)S(=O)(=O)c2ccccc2)c1 [SW202978] | -10.1 | 20.4 | 46.8 | 116 | -13.8 | -0.07
24 | COc1ccc(OC)c(N(CC(=O)OC(C)(C)C)S(=O)(=O)c2ccccc2)c1 [SW202979] | -8.92 | 17.8 | 41.6 | 133 | -14.4 | 10.8
25 | COC(=O)CN(c1cc(OC)ccc1OC)S(=O)(=O)c1ccccc1 [SW202980] | -7.34 | 5.17 | 11.4 | 50.6 | -27.6 | -13.4
26 | COc1ccc(OC)c(N(CC(=O)Nc2cccc(Cl)c2)S(=O)(=O)c2ccccc2)c1 [SW202985] | -4.89 | 26.3 | 79.6 | 150 | -27.3 | -21.9
